Measurements as given in patent US8507454B2, “Methods and unit dose formulations for the inhalation administration of aminoglycoside antibiotics” (priority 2001, dated 2013).
“Also recorded” adds a separate entry of the source.

How the values were obtained:
[1] = tested on: P. aeruginosa isolates; settings: initial sputum cultures, Children's Hospital CF Center, Seattle, 1993; cited from earlier work
[2] = Example 3: sputum tobramycin pharmacokinetics; assay type: in vivo; settings: both sexes, human, inhaled, both formulations (300 mg TOBI, 420 mg TSI), read-out: Individual estimates of sputum half-life, range
Description: A comparison was made of the safety, pharmacokinetics, aerosol delivery characteristics, and nebulization time of the conventional dose and inhalation delivery system (5 mL ampoule containing 300 mg tobramycin and 11.25 mg sodium chloride in sterile water for injection (TOBI® tobramycin solution for inhalation, Chiron Corporation, Seattle, Wash.), pH 6.0; administered with a PART LC PLUS™ jet nebulizer with a DeVilbiss PulmoAide™ compressor set to deliver an output pressure of 20 psi—the “control delivery system”) with a dose of 420 mg Tobramycin Solution for Inhalation at 120 mg/mL (excipient 3.5 mL of ¼ normal saline adjusted to a pH of 6.0±0.5; 420 mg in 3.5 mL) delivered by the PAM LC PLUS™ jet nebulizer with a Invacare MOBILAIRE™ compressor set to deliver an output pressure of 35 psi (the “experimental delivery system”). […]
Sputum Tobramycin Concentrations: Sputum samples were expectorated by patients from a deep cough and collected before day 1 dosing (predose) and at 0.25, 1, 2, 4, and 8 h after the end of the nebulization period. […] The concentration of tobramycin was analyzed using reversed-phase high-performance liquid chromatography (HPLC) with ultraviolet detection. […] After addition of 600 μL of 60/40 acetonitrile/water (v/v), 50 μL was analyzed by HPLC. […]

[3] = Example 3: serum tobramycin pharmacokinetics; assay type: in vivo; settings: both sexes, human, inhaled, both formulations (300 mg TOBI, 420 mg TSI), read-out: Individual estimates of serum half-life, range
Description: A comparison was made of the safety, pharmacokinetics, aerosol delivery characteristics, and nebulization time of the conventional dose and inhalation delivery system (5 mL ampoule containing 300 mg tobramycin and 11.25 mg sodium chloride in sterile water for injection (TOBI® tobramycin solution for inhalation, Chiron Corporation, Seattle, Wash.), pH 6.0; administered with a PART LC PLUS™ jet nebulizer with a DeVilbiss PulmoAide™ compressor set to deliver an output pressure of 20 psi—the “control delivery system”) with a dose of 420 mg Tobramycin Solution for Inhalation at 120 mg/mL (excipient 3.5 mL of ¼ normal saline adjusted to a pH of 6.0±0.5; 420 mg in 3.5 mL) delivered by the PAM LC PLUS™ jet nebulizer with a Invacare MOBILAIRE™ compressor set to deliver an output pressure of 35 psi (the “experimental delivery system”).
The study was designed as an open label, randomized, single-dose, multicenter, two treatment, active-control, and parallel trial. […]
Serum Tobramycin Concentrations: Blood samples were collected at predose and at 0.167, 1, 2, 4, 6, and 8 h after the end of the nebulization period. […] Concentrations of tobramycin in serum were analyzed with a modified fluorescence polarization immunoassay (FPIA) method using the Abbott TDx®/TDxFLx® System. […] The lower limit of quantitation was 0.050 μg/mL. […]

[4] = tested on: P. aeruginosa; settings: cited from earlier work
[5] = tested on: Gram-negative bacteria; settings: Neu 1976; cited from earlier work
[6] = Example 1: urine tobramycin recovery; assay type: in vivo, human; settings: 7 days after prestudy or previous TOBI dose, LOQ 1.0 μg/mL
Description: Urine specimens were collected and combined in a 24-hour collection container during the 12 hours before treatment (−12-0 hour period) and during 0-8 hour and 8-24 hour collection periods after treatment according to instructions provided in the Study Manual. Total urine volume for the collection period was recorded, and a 10 mL aliquot from each urine collection was retained and frozen for later analysis of urine tobramycin concentration.
The recovery of tobramycin in urine (in […]) during 0-8 hour and 8-24 hour collection periods was calculated as follows. urine tobramycin recovery (μg)=urine volume (mL)·urine tobramycin concentration (μg/mL)
Urine tobramycin recovery was normalized for each collection period according to TOBI dose as follows. dose-normalized urine tobramycin recovery (μg/mg)=[urine tobramycin recovery (μg)÷TOBI dose (mg)]
The percent of the TOBI dose excreted in urine in the 24-hour period following treatment was calculated as follows. % tobramycin excreted in urine =[(urinary recovery in μg÷1000 μg/mg)÷TOBI dose in mg]·100%.
Tobramycin concentrations in urine were measured by Abbott TDxFLx® assay [urine lower limit of quantitation (LOQ)=1.0 μg/mL].

For `NC[C@H]1O[C@H](O[C@H]2[C@H](O)[C@@H](O[C@H]3O[C@H](CO)[C@@H](O)[C@H](N)[C@H]3O)[C@H](N)C[C@@H]2N)[C@H](N)C[C@@H]1O` [tobramycin], the “MICs of 90% of isolates” value [1] is listed as at most 16 µg/mL, the “MICs of 98% of all isolates” value [1] is listed as at most 128 µg/mL and the half-life [2] is listed as 0.48 to 9.47 h. For the same compound, the half-life [3] was 1.1 to 6.8 h, the “Average decrease in P. aeruginosa density, Week 0 to Week 20” value ([4]; 300 mg inhaled tobramycin twice daily, 28 days on/28 days off, Ramsey 1999) was 0.8 log10 and the “Average decrease in P. aeruginosa density, Week 0 to Week 4” value ([4]; 300 mg inhaled tobramycin twice daily, Ramsey 1999) was 1.9 log10. For the same compound, the “Sputum density of P. aeruginosa” value ([4]; 600 mg tid aerosolized tobramycin, 71 CF patients, crossover trial, Ramsey 1993) was “significant reduction”, the “Concentrations effective in inhibiting the growth of many Gram-negative bacteria” value [5] was under 4 µg/mL and the “Measurable predose urine tobramycin concentration during period listed, individual patients” value ([6]; after prestudy tobramycin) was “Per 1 - 1.82 μg/mL; also recorded: Per 1 - 3.14 μg/mL; also recorded: Per 1 - 1.74 μg/mL; also recorded: Per 1 - 2.72 μg/mL; also recorded: Per 1 - 3.80 μg/mL”. The “Measurable predose urine tobramycin concentration during period listed, individual patients” value ([6]; after previous TOBI 30 mg) was “Per 3 - 1.20 μg/mL”, the “Measurable predose urine tobramycin concentration during period listed, individual patients” value ([6]; after previous TOBI 60 mg) was “Per 3 - 1.30 μg/mL; also recorded: Per 3 - 13.22 μg/mL” and the “Measurable predose urine tobramycin concentration during period listed, individual patients” value ([6]; after previous TOBI 90 mg) was “Per 2 - 3.10 μg/mL”. For the same compound, the “Measurable predose urine tobramycin concentration during period listed, individual patients” value ([6]; after previous TOBI 300 mg) was “Per 2 - 2.06 μg/mL; also recorded: Per 2 - 2.58 μg/mL; also recorded: Per 2 - 1.48 μg/mL; also recorded: Per 2 - 1.58 μg/mL; also recorded: Per 2 - 2.28 μg/mL; also recorded: Per 3 - 2.70 μg/mL; also recorded: Per 3 - 1.16 μg/mL; also recorded: Per 3^c - 1.12 μg/mL; also recorded: Per 3 - 2.08 μg/mL”.
